Measurements as given in patent US10912297B2, “Phenoxyhalogenphenylamidines and the use thereof as fungicides” (priority 2015, dated 2021).
Like-named read-outs stand apart in the source and are kept apart here.

Columns and labels:
soy bean plants = test: Plant compatibility test using soy bean plants; assay type: in vivo; conditions: soy bean young plants sprayed at 500 ppm, evaluated 6 days after application; 0% no damages, 100% totally damaged
Protocol: [table] To produce a suitable preparation of active compound, 1 part by weight of active compound is mixed with the stated amounts of solvent and emulsifier, and the concentrate is diluted with water to the desired concentration. Young plants are sprayed with the preparation of active compound at the stated application rate. The plants are then placed in a greenhouse at approximately 21° C. and a relative atmospheric humidity of approximately 80%. The test is evaluated 6 days after application and comprises plant damages like leaf deformation, chlorosis, necrosis, shoot damage or stunting. 0% means no damages are observed, while 100% means that the plants are totally damaged.

[1] = Log P by HPLC on reversed phase columns (EEC directive 79/831 Annex V.A8); assay type: physicochemical; conditions: reversed phase HPLC column, LC-UV
Protocol: Measurement of Log P values was performed according to EEC directive 79/831 Annex V.A8 by HPLC (High Performance Liquid Chromatography) on reversed phase columns with the following methods: • ^[a] Log P value is determined by measurement of LC-UV, in an acidic range, with 0.1% formic acid in water and acetonitrile as eluent (linear gradient from 10% acetonitrile to 95% acetonitrile). • ^[b] Log P value is determined by measurement of LC-UV, in a neutral range, with 0.001 molar ammonium acetate solution in water and acetonitrile as eluent (linear gradient from 10% acetonitrile to 95% acetonitrile). […] Lambda-max-values were determined using UV-spectra from 200 nm to 400 nm and the peak values of the chromatographic signals.

[2] = Hydrolysis stability test in homogeneous aqueous solution; assay type: physicochemical; conditions: 50° C., 24 hours, first order degradation assumed
Protocol: To produce a suitable preparation of active compound for the hydrolysis stability test, a 1000 ppm stock solution (1 mg/mL) of active compound in acetonitrile is prepared. Three aliquots of […] are pipetted into HPLC vials and diluted with 750 μL acetonitrile. In each vial 850 μL of the appropriate buffer solution (pH4, pH7 and pH9, CertiPUR, Fa. Merck) is added. The buffer containing HPLC vials are incubated in a heated sample tray at 50° C. for 24 hours. The amount A of the active compound is analyzed by HPLC (UV-peak areas at 210 nm) at eight points in time t: 0 min, 140 min, 350 min, 560 min, 770 min, 980 min, 1190 min, 1400 min. The half-life time (T1/2) of each active compound is calculated via linear regression by using the following equations (first order degradation assumed): [formula] [formula]

[3] = Photolysis stability test; assay type: physicochemical; conditions: dried film in MTP, irradiated at 30° C. and 480 W/m^2 (SUNTEST), first order degradation assumed
Protocol: The stability towards photolysis of the phenylamidines described in the prior art is good but an improved stability towards photolysis may be an advantage as it could offer a longer lasting efficacy when applied to plants by foliar application. The improved stability towards photolysis was proven by a […] stability test as described below: To produce a suitable preparation of active compound for the photolysis stability test, a 1000 ppm stock solution (1 mg/mL) of active compound in acetonitrile is prepared. Aliquots of […] of this stock solution are pipetted in three wells of a Bio-one microtiter plate (MTP) UVStar 96 (Fa. Greiner, Art. No. 655801). The MTP is dried overnight in the dark and then irradiated at 30° C. and 480 W/m^2 with a UV irradiation device SUNTEST XLS+ or SUNTEST CPS (Fa. Atlas). The amount A of the active compound is analyzed by HPLC (UV-peak areas at 210 nm) at five points in time t: 0 h, 2 h, 4 h, 6 h, 24 h by using the following method: 200 μL acetonitrile is added in the respective well of the MTP and the MTP is sealed with a Bio-one sealing foil, viewseal 80/140 mm (Fa. Greiner, Art. No. 676070). The MTPs are sonicated for 3 minutes and analysed by HPLC. The half-life time (T1/2) of each active compound is calculated via linear regression by using the following equations (first order degradation assumed): […]

[4] = acidic range, 0.1% formic acid in water and acetonitrile as eluent, read-out: LogP [a]
[5] = neutral range, 0.001 molar ammonium acetate solution in water and acetonitrile as eluent, read-out: LogP [b]

| Compound | Necrosis in % (soy bean plants) [%] | chromatographic logP [1, 4] | chromatographic logP [1, 5] | half-life at 59 µg/mL ([2]; buffer pH 7/acetonitrile, read-out: T1/2 (pH 7) (converted)) [h] | half-life at 59 µg/mL ([2]; buffer pH 9/acetonitrile, read-out: T1/2 (pH 9) (converted)) [h] | half-life [3] [h] |
| --- | --- | --- | --- | --- | --- | --- |
| CCN(C)/C=N/c1cc(C)c(Oc2ccccc2)cc1C [Compound no. 1 known from WO2008/110313, reference compound] | 90 |  |  |  |  |  |
| CCN(C)C=Nc1cc(C)c(Oc2ccccc2)cc1F [Example I-03, N-ethyl-N′-(2-fluoro-5-methyl-4-phenoxyphenyl)-N-methylimidoformamide] |  | 1.55 | 3.97 |  |  |  |
| CCN(C)/C=N/c1cc(C)c(Oc2ccccc2)cc1Br [Example I-02, N′-(2-bromo-5-methyl-4-phenoxyphenyl)-N-ethyl-N-methylimidoformamide] | 10 | 1.61 | 4.67 |  |  |  |
| Cc1cc(N)c(Br)cc1Oc1ccccc1 [VIII-02, 2-bromo-5-methyl-4-phenoxyaniline] |  | 3.66 | 3.65 |  |  |  |
| CCN(C)/C=N/c1cc(C)c(Oc2ccccc2)cc1Cl [Example I-01, N′-(2-chloro-5-methyl-4-phenoxyphenyl)-N-ethyl-N-methylimidoformamide] | 50 | 1.6 |  | 45 | 40 | > 200 |
| Cc1cc([N+](=O)[O-])c(Br)cc1Oc1ccccc1 [VI-02, 1-bromo-4-methyl-2-nitro-5-phenoxybenzene] |  | 4.51 |  |  |  |  |
